For 6 molecules, IC50 results are on record in ChEMBL document CHEMBL5344468, “Novel Heterocyclic PAD4 Inhibitors for Treating Diseases” (ACS Med Chem Lett, 2024).

Each structure is given as a SMILES string.

What is called IC50 is the concentration needed to halve the response being measured. A high value points to weaker potency.

This assay deals with Protein-arginine deiminase type-4 (Homo sapiens, UniProt Q9UM07). The assay can be described thus: Inhibition of human PAD4 using BAEE as substrate preincubated with enzyme for 30 mins followed by substrate addition for 90 mins and later incubated with phenyl glyoxal for 30 mins by RFMS assay.
Protein-arginine deiminase type-4, sequence (Q9UM07 whole entry): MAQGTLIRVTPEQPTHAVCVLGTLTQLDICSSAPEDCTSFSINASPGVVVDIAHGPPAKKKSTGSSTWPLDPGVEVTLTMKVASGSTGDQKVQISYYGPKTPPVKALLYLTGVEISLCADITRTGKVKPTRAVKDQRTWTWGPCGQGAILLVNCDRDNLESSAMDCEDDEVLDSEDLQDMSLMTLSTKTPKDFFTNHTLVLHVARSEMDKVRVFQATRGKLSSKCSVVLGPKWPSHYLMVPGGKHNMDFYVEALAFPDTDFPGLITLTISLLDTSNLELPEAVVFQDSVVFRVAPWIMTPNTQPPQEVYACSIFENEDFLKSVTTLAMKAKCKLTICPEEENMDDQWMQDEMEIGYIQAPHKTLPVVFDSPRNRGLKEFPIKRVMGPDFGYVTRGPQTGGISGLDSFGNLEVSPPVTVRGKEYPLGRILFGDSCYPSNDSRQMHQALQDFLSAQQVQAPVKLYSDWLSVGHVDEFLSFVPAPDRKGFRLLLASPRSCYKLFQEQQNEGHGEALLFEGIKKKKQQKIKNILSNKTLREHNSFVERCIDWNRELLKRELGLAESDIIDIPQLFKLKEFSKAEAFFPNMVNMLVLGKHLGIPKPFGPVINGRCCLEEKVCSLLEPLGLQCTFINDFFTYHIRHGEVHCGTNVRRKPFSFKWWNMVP
Molecule `Cn1c(-c2cc3cccc(OCCc4ccn[nH]4)c3n2CC2CC2)nc2cc3c(nc21)CCN(C[C@H](N)CF)C3=O` had an IC50 not above 10 nM.

On to `Cn1c(-c2cc3cccc(OCCc4ccon4)c3n2CC2CC2)nc2cc3c(nc21)CCN(C[C@H](N)CF)C3=O`, for which the IC50 was not above 10 nM. Then `Cn1c(-c2cc3cccc(OCCc4cnco4)c3n2CC2CC2)nc2cc3c(nc21)CCN(C[C@H](N)CF)C3=O`, with not above 10 nM.

Turning to `Cn1c(-c2cc3cccc(OCCc4cnn[nH]4)c3n2CC2CC2)nc2cc3c(nc21)CCN(C[C@H](N)CF)C3=O`, the IC50 was not above 10 nM.

With `Cn1c(-c2cc3cccc(OCCc4cccnc4)c3n2CC2CC2)nc2cc3c(nc21)CCN(C[C@H](N)CF)C3=O`, the IC50 is not above 10 nM. Then `Cn1c(-c2cc3ccnc(OCCn4ccnc4)c3n2CC2CC2)nc2cc3c(nc21)CCN(C[C@H](N)CF)C3=O`, with not above 10 nM.
